In US11655242B2, “Glucagon-like peptide1 receptor agonists” (Eli Lilly and Company, priority 2019, dated 2023):
Read-outs that look alike come from different tables or passages of the source.

Tests used:
human GLP-1R = human GLP-1R (Homo sapiens (Human), UniProt P43220); assay: Human GLP-1 Receptor HEK293 Cell cAMP Assay; settings: for EC50: EC50 (nM) ± SEM (n), intracellular cAMP response, relative EC50; for Emax: percent of maximal response with human GLP-1(7-36)NH2
Description: After a 30 min incubation at 37° C., the resulting increase in intracellular cAMP is quantitatively determined using the CisBio cAMP Dynamic 2 HTRF Assay Kit (62AM4PEJ). Briefly, cAMP levels within the cell are detected by adding the cAMP-d2 conjugate in cell lysis buffer (10 μL) followed by the antibody anti-cAMP-Eu^3+-Cryptate, also in cell lysis buffer (10 μL). […] The amount of cAMP generated (nM) in each well is converted to a percent of the maximal response observed with human GLP-1(7-36)NH2. A relative EC50 value and percent top (Emax) are derived by non-linear regression analysis using the percent maximal response vs. the concentration of compound added, fitted to a four-parameter logistic equation.

PDE10A1 = PDE10A1 (Homo sapiens (Human), UniProt Q9Y233); assay: Phosphodiesterase 10 (PDE10) Enzyme Activity Assay; format: biochemical; settings: read-out: IC50 (μM), n = 1, inhibition of PDE10A1; SPA, [3H]-cGMP substrate, maximal compound concentration 10 μM
Description: Phosphodiesterase 10 (PDE10) Enzyme Activity Assay
To generate phosphodiesterase 10A1 (PDE10A1) protein, a full-length PDE10A1 clone corresponding to GenBank ID AAD32595.1 is cloned into pFastBac1 (Invitrogen). The PDE10A1 protein with a C-terminal FLAG-tag is expressed by baculoviral infection of insect cells and purified using anti-FLAG M2-agarose (Sigma) and size exclusion chromatography on a Superdex 200 column (GE Healthcare) and stored at −80° C. in small aliquots (20 mM Tris-HCl, Ph 7.5, 150 mM NaCl, 10% Glycerol).
PDE10A1 enzyme activities are measured with a yittrium silicate based scintillation proximity assay (SPA) that detects radioactive nucleotide monophosphates but not cyclic monophosphates. The assay buffer is composed of 50 mM Tris-HCl pH 7.5, 8 mM MgCl2, 3.4 mM EDTA, and 0.1% BSA (Sigma). Assays are conducted in 384 well plates (3706, Corning) in a total volume of 50 μl: comprised of 24 μl PDE10A1 enzyme, 1 μl test compound and 25 μl of cyclic nucleotide. Test compounds are diluted in pure DMSO using ten-point concentration response curves with a 3-fold dilution factor and 1 μl is acoustically dispensed into assay plates using the Echo555 (LabCyte). 24 μl PDE10A1 protein is incubated with 1 μl compound for 30 min before the reaction is started by the addition of [8-^3H]-cGMP substrate (6.5 Ci/mmol, Perkin Elmer). Final concentration of components is […], 80 nM (3H-cGMP), and 2% DMSO in assay buffer. Maximal compound concentration in the reaction mixture is 10 μM. Reactions are incubated for 60 min at RT before quenching and the addition of […] SPA beads (RPNQ0150, Perkin Elmer). Bead bound radioactivity (product) is quantified 12 h later with a Microbeta counter (Perkin Elmer). Data is normalized to % inhibition and IC50 values are calculated using the 4 parameter logistic equation as described (Campbell R. M.; Dymshitz, J.; Eastwood, B. J.; et al. “Data Standardization for Results Management.” In: Sittampalam, G. S.; Grossman, A.; Brimacombe, K.; et al.; eds. Assay Guidance Manual. Bethesda (Md.): Eli Lilly & Company and the National Center for Advancing Translational Sciences; 2004.).

[1] = Non-Human Primate (NHP) Pharmacokinetics; format: in vivo; settings: cynomolgus monkey, plasma, IV 0.5 mg/kg, fasted male cynomolgus monkeys; for Vd: steady-state, read-out: Volume of distribution
Description: Non-Human Primate (NHP) Pharmacokinetics:
The test compound is administered to fasted male cynomolgus monkeys intravenously (IV) at 0.5 mg/kg (using a dose volume of 1 mL/kg). Serial blood samples are collected at 0.08, 0.25, 0.5, 1, 2, 4, 8, 12, and 24 hours post dose for IV bolus. After treatment with an EDTA […], plasma is obtained by centrifugation and stored at −70° C. until analysis by LC-MS/MS. Test article concentration is determined in plasma. Noncompartmental analysis is used to calculate plasma clearance and steady-state volume of distribution.

hERG K+ channel = hERG K+ channel (Homo sapiens (Human), UniProt Q12809); assay: Human hERG K+ Channel Affinity Radioligand Binding Assay; settings: pH 7.4, probe [3H]dofetilide, 3 nM, read-out: Percent inhibition (%) at 100 μM compound concentration, n = 1
Description: Human hERG K^+ Channel Affinity Radioligand Binding Assay
The affinity of compounds for the human hERG K^+ channel in transfected HEK-293 cells is evaluated in a radioligand binding assay as described herein. Cell membrane homogenates (about […]) are incubated for 60 min at 22° C. with 3 nM [^3H]dofetilide in the absence or presence of the test compound in a buffer containing 50 mM Tris-HCl (pH 7.4), 10 mM KCl and 1 mM MgCl2. The assay is carried out in a 96-well plate format with a volume of 200 μL, containing a maximum of 1% DMSO from initial solubilization of test compound. Following incubation, the samples are filtered rapidly under vacuum through glass fiber filters (GF/B, Packard) presoaked with 0.3% PEI and rinsed several times with ice-cold 50 mM Tris-HCl, 10 mM KCl and 1 mM MgCl2 using a 96-sample cell harvester (Unifilter, Packard). The filters are dried and then counted for radioactivity in a scintillation counter (Topcount, Packard) using a scintillation cocktail (Microscint 0, Packard).

[2] = tested on: mice expressing the human GLP-1R; assay: In Vivo Intraperitoneal Glucose Tolerance Test in Human GLP-1R Knock-in Mice; settings: Mus musculus; read-out: Blood glucose lowering ED50
Description: In Vivo Intraperitoneal Glucose Tolerance Test in Human GLP-1R Knock-in Mice
The potency of the exemplified compounds to lower the concentration of blood glucose in vivo is determined using mice expressing the human GLP-1R (NCBI accession number NP_002053) from the mouse Glp-1r genetic locus (Jun, L. S., et al., PLoS One. 2014 9:e93746). Overnight fasted mice are orally administered the test compound solubilized in 10% Kolliphor® (HS15) in Polyetheylene Glycol 400 (PEG400). One hour post-dose, the animals are administered glucose by intraperitoneal injection (2 g/kg), and blood glucose levels are measured intermittingly over the next two hours using glucometers. A dose range of the test compound is delivered, and area under the curve calculations for each dose group are determined and fit to a four-parameter logistic model for calculating in vivo potency as an ED50 with a 95% confidence interval.

[3] = HEK293 cell line with 104 fmol/mg expression density of GLP-1R
[4] = HEK293 cell line with 581 fmol/mg expression density of GLP-1R
[5] = HEK293, read-out: Emax (%) ± SEM (n), HEK293 cell line with 104 fmol/mg expression density of GLP-1R
[6] = HEK293, read-out: Emax (%) ± SEM (n), HEK293 cell line with 581 fmol/mg expression density of GLP-1R

Sequence of hERG K+ channel (Q12809 whole entry): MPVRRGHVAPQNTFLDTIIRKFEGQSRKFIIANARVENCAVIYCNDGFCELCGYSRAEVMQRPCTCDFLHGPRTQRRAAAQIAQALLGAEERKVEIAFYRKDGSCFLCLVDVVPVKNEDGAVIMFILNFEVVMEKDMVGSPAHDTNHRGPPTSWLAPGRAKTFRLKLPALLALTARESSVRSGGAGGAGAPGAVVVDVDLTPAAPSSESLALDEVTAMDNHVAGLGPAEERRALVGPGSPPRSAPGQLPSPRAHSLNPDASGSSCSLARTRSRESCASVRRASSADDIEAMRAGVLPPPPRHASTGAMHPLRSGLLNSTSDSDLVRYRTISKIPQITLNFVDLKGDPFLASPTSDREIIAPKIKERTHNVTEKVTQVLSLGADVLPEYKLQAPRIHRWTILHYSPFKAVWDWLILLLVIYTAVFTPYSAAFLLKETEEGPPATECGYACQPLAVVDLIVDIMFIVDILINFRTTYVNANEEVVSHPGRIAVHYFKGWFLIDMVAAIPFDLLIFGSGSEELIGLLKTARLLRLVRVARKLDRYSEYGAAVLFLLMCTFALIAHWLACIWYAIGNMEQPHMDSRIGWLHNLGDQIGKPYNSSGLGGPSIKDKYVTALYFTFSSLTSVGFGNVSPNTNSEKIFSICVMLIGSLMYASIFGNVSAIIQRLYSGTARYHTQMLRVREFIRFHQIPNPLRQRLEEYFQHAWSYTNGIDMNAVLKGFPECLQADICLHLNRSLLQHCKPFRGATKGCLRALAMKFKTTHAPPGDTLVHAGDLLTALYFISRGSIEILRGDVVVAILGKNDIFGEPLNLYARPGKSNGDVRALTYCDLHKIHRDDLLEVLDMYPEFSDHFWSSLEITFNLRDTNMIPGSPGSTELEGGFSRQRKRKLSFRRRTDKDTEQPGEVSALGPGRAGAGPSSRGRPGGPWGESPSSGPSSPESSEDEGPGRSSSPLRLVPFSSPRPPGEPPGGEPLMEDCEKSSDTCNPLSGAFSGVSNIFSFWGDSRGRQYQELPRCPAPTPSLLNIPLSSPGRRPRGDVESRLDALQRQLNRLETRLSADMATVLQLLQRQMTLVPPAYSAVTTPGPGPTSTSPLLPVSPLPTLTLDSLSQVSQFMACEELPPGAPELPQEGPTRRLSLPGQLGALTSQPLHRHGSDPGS
Sequence of human GLP-1R (P43220 24-463): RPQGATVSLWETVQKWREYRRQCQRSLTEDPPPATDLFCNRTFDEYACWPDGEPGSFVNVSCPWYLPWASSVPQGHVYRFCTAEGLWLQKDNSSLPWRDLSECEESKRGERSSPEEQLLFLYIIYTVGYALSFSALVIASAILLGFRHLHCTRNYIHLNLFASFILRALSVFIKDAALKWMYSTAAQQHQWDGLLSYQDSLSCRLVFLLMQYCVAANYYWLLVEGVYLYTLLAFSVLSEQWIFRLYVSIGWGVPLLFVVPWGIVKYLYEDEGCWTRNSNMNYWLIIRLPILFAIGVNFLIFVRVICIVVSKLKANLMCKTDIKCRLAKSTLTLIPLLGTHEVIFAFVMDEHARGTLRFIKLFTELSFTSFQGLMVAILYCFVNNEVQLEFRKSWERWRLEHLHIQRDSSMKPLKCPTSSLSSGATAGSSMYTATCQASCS
Sequence of PDE10A1 (Q9Y233 other isoform, or with tags, fused parts or gaps): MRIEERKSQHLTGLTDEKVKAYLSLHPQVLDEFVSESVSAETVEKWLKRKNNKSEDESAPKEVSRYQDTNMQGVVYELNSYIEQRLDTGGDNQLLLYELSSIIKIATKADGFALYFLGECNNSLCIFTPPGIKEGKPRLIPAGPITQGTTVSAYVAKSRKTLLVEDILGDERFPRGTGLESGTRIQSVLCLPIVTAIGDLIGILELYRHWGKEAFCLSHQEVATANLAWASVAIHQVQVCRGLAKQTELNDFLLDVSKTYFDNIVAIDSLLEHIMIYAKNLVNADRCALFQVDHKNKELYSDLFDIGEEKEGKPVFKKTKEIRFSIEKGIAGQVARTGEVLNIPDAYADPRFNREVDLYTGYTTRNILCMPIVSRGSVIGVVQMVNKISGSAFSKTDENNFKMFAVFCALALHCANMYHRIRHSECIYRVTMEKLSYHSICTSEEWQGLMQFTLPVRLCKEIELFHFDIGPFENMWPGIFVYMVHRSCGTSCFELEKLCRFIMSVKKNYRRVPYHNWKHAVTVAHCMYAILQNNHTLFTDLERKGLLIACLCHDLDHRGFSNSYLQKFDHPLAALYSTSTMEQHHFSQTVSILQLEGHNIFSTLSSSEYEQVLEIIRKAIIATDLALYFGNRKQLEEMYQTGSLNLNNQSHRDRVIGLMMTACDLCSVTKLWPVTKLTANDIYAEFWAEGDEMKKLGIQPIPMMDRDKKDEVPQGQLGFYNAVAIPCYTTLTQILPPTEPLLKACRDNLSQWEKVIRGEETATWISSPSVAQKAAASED

Row | Structure (SMILES) | EC50 (human GLP-1R; [3]) [nM] | EC50 (human GLP-1R; [4]) [nM] | Emax (human GLP-1R; [5]) [%] | Emax (human GLP-1R; [6]) [%] | IC50 (PDE10A1) [µM] | clearance [1] [mL/min/kg] | Vd [1] [L/kg] | inhibition at 60 min, 100 µM (hERG K+ channel) [%] | ED50 [2] [mg/kg]
1 | Cc1c(-c2cccc(OCc3ccc(C#N)cc3F)n2)ccc(Cc2nc3ccc(C(=O)O)cc3n2C[C@@H]2CCO2)c1F [Example 5, 2-[[4-[6-[(4-Cyano-2-fluoro-phenyl)methoxy]-2-pyridyl]-2-fluoro-3-methyl-phenyl]methyl]-3-[[(2S)-oxetan-2-yl]methyl]benzimidazole-5-carboxylic Acid] | 23.6 ± 5.43 | 6.45 ± 0.934 | 76.7 ± 3.88 | 105 ± 2.43 |  |  |  |  | 
2 | N#Cc1ccc(COc2cccc(-c3cc(F)c(Cc4nc5ccc(C(=O)O)cc5n4C[C@@H]4CCO4)c(F)c3)n2)c(F)c1 [Example 4, 2-[[4-[6-[(4-Cyano-2-fluoro-phenyl)methoxy]-2-pyridyl]-2,6-difluoro-phenyl]methyl]-3-[(2S)-oxetan-2-ylmethyl]benzimidazole-5-carboxylic Acid] | 9.59 ± 2.36 | 3.99 ± 0.378 | 78.3 ± 5.1 | 99.2 ± 4 | 5.41 |  |  |  | 
3 | Cc1cc(Cc2nc3ccc(C(=O)O)cc3n2C[C@@H]2CCO2)ccc1-c1cccc(OCc2ccc(C#N)cc2F)n1 [Example 1, 2-[[4-[6-[(4-Cyano-2-fluoro-phenyl)methoxy]-2-pyridyl]-3-methyl-phenyl]methyl]-3-[[(2S)-oxetan-2-yl]methyl]benzimidazole-5-carboxylic Acid] | 20 ± 3.25 | 9.33 ± 1.36 | 71.4 ± 2.26 | 99.5 ± 2.53 | > 10 | 13 | 1.2 | 0 | 0.09
4 | N#Cc1ccc(COc2cccc(-c3ccc(Cc4nc5ccc(C(=O)O)cc5n4C[C@@H]4CCO4)c(F)c3)n2)c(F)c1 [Example 3, 2-[[4-[6-[(4-Cyano-2-fluoro-phenyl)methoxy]-2-pyridyl]-2-fluoro-phenyl]methyl]-3-[(2S)-oxetan-2-ylmethyl]benzimidazole-5-carboxylic Acid] |  |  |  |  | > 10 | 6 | 1.1 | 37 | 0.06
5 | Cc1cc(Cc2nc3ccc(C(=O)O)cc3n2C[C@@H]2CCO2)c(F)cc1-c1cccc(OCc2ccc(C#N)cc2F)n1 [Example 2, 2-[[4-[6-[(4-Cyano-2-fluoro-phenyl)methoxy]-2-pyridyl]-2-fluoro-5-methyl-phenyl]methyl]-3-[[(2S)-oxetan-2-yl]methyl]benzimidazole-5-carboxylic Acid] | 3.97 ± 0.61 | 1.14 ± 0.315 | 79.2 ± 3.2 | 104 ± 4.35 | 7.43 | 11 | 1.1 | 54 | 0.07
